Values quoted from earlier work, collected in US20030083286A1, “Bioadhesive compositions and methods for enhanced intestinal drug absorption” (priority 2001, published 2003).
Read-outs that look alike come from different tables or passages of the source. In the oligonucleotide strings, read from the 5' end, every base follows the letter of its sugar. An asterisk marks phosphorothioate; unmarked linkages are phosphodiester. Other units and linkages are bracketed, terminal groups are in braces. A string of capitals states the bases alone. d = 2'-deoxy (DNA)

Experiments:
ICAM-1 [1] = conditions: C8161 human melanoma cells
[2] = not given; remark: listed apart in the source
[3] = tested on: ICAM-1 over HLA-A and HLA-B; conditions: versus HLA-A and HLA-B
ICAM-1 [4] = tested on: ICAM-1

| Substance | ICAM-1 expression (mRNA levels, northern blot) (ICAM-1 [1]) | activity against Crohn's disease in humans (humans) | steroid-sparing effect on treated subjects (humans, five months post-treatment weaned from steroids and in remission) | safety in humans (in vivo) | enhanced metastatic ability of C8161 cells resulting from TNF-α treatment (C8161 cells; TNF-α treated cells) | metastatic potential of C8161 cells (C8161 cells; in vivo) | anti-inflammatory effects in animal testing ([2]; Crohn's disease, rheumatoid arthritis, psoriasis, ulcerative colitis, kidney transplant rejection) | biological activity in animal models of inflammatory disease ([2]; in vivo) | specificity for target ICAM-1 over other potential nucleic acid targets [3] | ICAM-1 expression (ICAM-1 [4]; human epidermal carcinoma cells (A431)) | ICAM-1 expression (ICAM-1 [4]; human keratinocytes) | ICAM-1 expression (ICAM-1 [4]; human lung carcinoma cells (A549)) | ICAM-1 expression (ICAM-1 [4]; human umbilical vein cells) |
| --- | --- | --- | --- | --- | --- | --- | --- | --- | --- | --- | --- | --- | --- |
| ISIS 1939: 2′-oligodeoxynucleotide, phosphorothioate backbone, 5′-CCC-CCA-CCA-CTT-CCC-CTC-TC-3′ (SEQ ID NO:2), targeted to 3′-UTR of human ICAM-1 gene (antisense CCCCCACCACTTCCCCTCTC; DNA, all phosphorothioate, methylation of C not given here) | markedly reduced ICAM-1 expression | – | – | – | – | – | – | – | – | – | – | – | – |
| ISIS 2302: 2′-deoxyoligonucleotide, phosphorothioate backbone, 5′-GCC-CAA-GCT-GGC-ATC-CGT-CA-3′ (SEQ ID NO:1), targeted to 3′-UTR of human ICAM-1 gene (antisense dG*dC*dC*dC*dA*dA*dG*dC*dT*dG*dG*dC*dA*dT*dC*dC*dG*dT*dC*dA) | markedly reduced ICAM-1 expression | activity against Crohn's disease | statistically significant steroid-sparing effect | good safety | eliminated the enhanced metastatic ability | decreased the metastatic potential | strong anti-inflammatory effects | significant biological activity | demonstrated specificity | inhibit ICAM-1 expression | inhibit ICAM-1 expression | inhibit ICAM-1 expression | inhibit ICAM-1 expression |
